Calls of active or inactive are those of the source. The calls are words filed in the database; no cut-off is given here.
How the values were obtained:
[1] = Metabolic stability in human hepatocytes assessed as intrinsic clearance; type: ADME, cell-based, Hepatocyte; settings: read-out: CLH
[2] = Permeability across apical to basal side in MDCK-MDR1 cells at pH 6.5/7.4 measured at 5 uM by LC-MS/MS analysis; type: ADME, cell-based, Canis lupus familiaris; settings: dog, MDCK-MDR1, pH 6.5
[3] = target: T1, Tryptophan 5-hydroxylase 1 (Homo sapiens) (UniProt P17752); experiment: Binding affinity to […] (unknown origin) assessed as dissociation rate constant by surface plasmon resonance analysis
T1 sequence (whole entry): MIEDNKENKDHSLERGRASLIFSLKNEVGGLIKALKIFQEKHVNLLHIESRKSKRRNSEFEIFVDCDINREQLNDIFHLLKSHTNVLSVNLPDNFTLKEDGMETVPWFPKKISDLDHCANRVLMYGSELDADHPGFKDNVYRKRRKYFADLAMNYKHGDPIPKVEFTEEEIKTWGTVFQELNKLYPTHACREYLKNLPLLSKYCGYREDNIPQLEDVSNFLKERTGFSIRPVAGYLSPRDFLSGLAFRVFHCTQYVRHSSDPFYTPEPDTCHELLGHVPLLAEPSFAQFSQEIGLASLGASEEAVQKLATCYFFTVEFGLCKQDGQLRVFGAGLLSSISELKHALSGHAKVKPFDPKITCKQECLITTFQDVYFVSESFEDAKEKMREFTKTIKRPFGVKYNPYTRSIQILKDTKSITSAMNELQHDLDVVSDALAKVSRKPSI

[4] = target: T1, Tryptophan 5-hydroxylase 1 (Homo sapiens); experiment: Binding affinity to […] (unknown origin) assessed as association rate constant by surface plasmon resonance analysis
[5] = Plasma concentration in CD-1 (ICR) mouse at 50 mg/kg measured 0.5 hrs by LC-MS/MS analysis; type: ADME, organism-based
[6] = target: ATP-dependent translocase ABCB1 (Homo sapiens, UniProt P08183); experiment: Inhibition of P-gp in human Caco-2 cells seeded in polyethylene membranes assessed as permeation in presence or absence of digoxin measured for 2 hrs by LC-MS/MS analysis based transporter assay; type: cell-based
[7] = Substrate activity at BCRP in human Caco-2 cells seeded in polyethylene membranes at 2 uM in presence or absence of E3S incubated for 2 hrs by LC-MS/MS analysis based substrate identification assay; type: ADME, cell-based; settings: caco-2, 2 h
[8] = target: Large neutral amino acids transporter small subunit 1 (Homo sapiens, UniProt Q01650); experiment: Inhibition of human LAT1 transfected in MDCK-II cells co-transfected with 4F2HC or GFP using [3H]-leucine as probe substrate at 20 uM incubated for 10 mins by scintillation counting analysis; type: cell-based
[9] = Tmax in CD-1 (ICR) mouse at 50 mg/kg, po measured upto 1440 mins by LC-MS/MS analysis; type: ADME, organism-based; settings: in vivo
[10] = AUC (0 to infinitive) in CD-1 (ICR) mouse at 50 mg/kg, po measured upto 1440 mins by LC-MS/MS analysis; type: ADME, organism-based; design: time < 1440 min, dose 50 mg/kg, route po; settings: in vivo
[11] = MRT (0 to infinitive) in CD-1 (ICR) mouse at 50 mg/kg, po measured upto 1440 mins by LC-MS/MS analysis; type: ADME, organism-based; settings: in vivo
[12] = AUCExtra in CD-1 (ICR) mouse at 50 mg/kg, po measured upto 1440 mins by LC-MS/MS analysis; type: ADME, organism-based; settings: in vivo, 24 h
[13] = AUMCExtra in CD-1 (ICR) mouse at 50 mg/kg, po measured upto 1440 mins by LC-MS/MS analysis; type: ADME, organism-based; settings: in vivo, 24 h
[14] = Drug uptake in CD-1 (ICR) mouse lung at 50 mg/kg measured 2 hrs by LC-MS/MS analysis; type: ADME, organism-based; settings: read-out: Drug uptake
[15] = Drug uptake in CD-1 (ICR) mouse brain at 50 mg/kg measured 0.5 hrs by LC-MS/MS analysis; type: ADME, organism-based; settings: read-out: Drug uptake
[16] = AUC (0 to infinitive) in Sprague-Dawley rat at 10 mg/kg, iv measured upto 1440 mins by LC-MS/MS analysis; type: ADME, organism-based; design: dose 10 mg/kg, time < 1440 min, route iv; settings: in vivo
[17] = AUMCExtra in Sprague-Dawley rat at 10 mg/kg, iv measured upto 1440 mins by LC-MS/MS analysis; type: ADME, organism-based; settings: in vivo, 24 h
[18] = Cmax in Sprague-Dawley rat at 20 mg/kg, po measured upto 1440 mins by LC-MS/MS analysis; type: ADME, organism-based; design: time < 1440 min, dose 20 mg/kg, route po; settings: in vivo
[19] = AUCExtra in Sprague-Dawley rat at 20 mg/kg, po measured upto 1440 mins by LC-MS/MS analysis; type: ADME, organism-based; settings: in vivo, 24 h
[20] = AUMCExtra in Sprague-Dawley rat at 20 mg/kg, po measured upto 1440 mins by LC-MS/MS analysis; type: ADME, organism-based; settings: in vivo, 24 h
[21] = Half life in Sprague-Dawley rat at 50 mg/kg, po measured upto 1440 mins by LC-MS/MS analysis; type: ADME, organism-based; settings: in vivo
[22] = MRT (0 to infinitive) in Sprague-Dawley rat at 50 mg/kg, po measured upto 1440 mins by LC-MS/MS analysis; type: ADME, organism-based; settings: in vivo
[23] = Oral bioavailability in Sprague-Dawley rat at 50 mg/kg measured upto 1440 mins by LC-MS/MS analysis; type: ADME, organism-based; settings: in vivo
[24] = Drug uptake in Sprague-Dawley rat lung at 50 mg/kg, po measured at 0.5 hrs by LC-MS/MS analysis; type: ADME, organism-based; settings: read-out: Drug uptake
[25] = Drug uptake in Sprague-Dawley rat lung at 50 mg/kg, po measured at 2 hrs by LC-MS/MS analysis; type: ADME, organism-based; settings: read-out: Drug uptake
[26] = Plasma concentration in Sprague-Dawley rat at 20 mg/kg, po measured at 0.5 hrs by LC-MS/MS analysis; type: ADME, organism-based
[27] = Drug uptake in Sprague-Dawley rat brain at 20 mg/kg, po measured at 0.5 hrs by LC-MS/MS analysis; type: ADME, organism-based; settings: in vivo, BLD = below limit of detection
[28] = Reduction in serotonin level in C57BL/6N mouse duodenum at 1.5 mg/kg, po bid treated for 7 days by HPLC analysis relative to control; type: functional; settings: 168 h, time 7 day
Mus musculus [29] = experiment: Effect on C57BL/6N mouse assessed as brain serotonin turnover measuring 5-HT/TRP ratio at 1.5 to 50 mg/kg, po bid treated for 6 to 7 days; type: functional, organism-based; settings: dose 1.5-50 mg/kg, time 6-7 day
Mus musculus [30] = experiment: Effect on total travelled distance of C57BL/6N mouse at 100 mg/kg, po treated for 14 days by locomotor activity test; type: functional, organism-based; settings: time 14.0 day
MC-38 = experiment: Antitumor activity against mouse MC-38 cells subcutaneously transplanted in C57BL/6N mouse assessed as reduction in AUC of tumor growth at 50 mg/kg, po bid measured on day 20 relative to control; type: functional; settings: MC-38, 480 h, route sc, time 20 day
Mus musculus [31] = experiment: Effect on hedonic component behavior in C57BL/6N mouse at 50 mg/kg, po treated for 14 days by sucrose preference test; type: functional, organism-based; settings: time 14.0 day
Mus musculus [32] = experiment: Effect on total duration of immobility in C57BL/6N mouse at 50 mg/kg, po treated for 14 days by tail suspension test; type: functional, organism-based; settings: time 14.0 day
[33] = Toxicity in C57BL/6N mouse subcutaneously transplanted with mouse MC-38 cells assessed as body weight change at 50 mg/kg, po bid measured on day 20; type: organism-based; settings: in vivo, sc, 480 h, time 20 day

Chain of Large neutral amino acids transporter small subunit 1 (Q01650 whole entry): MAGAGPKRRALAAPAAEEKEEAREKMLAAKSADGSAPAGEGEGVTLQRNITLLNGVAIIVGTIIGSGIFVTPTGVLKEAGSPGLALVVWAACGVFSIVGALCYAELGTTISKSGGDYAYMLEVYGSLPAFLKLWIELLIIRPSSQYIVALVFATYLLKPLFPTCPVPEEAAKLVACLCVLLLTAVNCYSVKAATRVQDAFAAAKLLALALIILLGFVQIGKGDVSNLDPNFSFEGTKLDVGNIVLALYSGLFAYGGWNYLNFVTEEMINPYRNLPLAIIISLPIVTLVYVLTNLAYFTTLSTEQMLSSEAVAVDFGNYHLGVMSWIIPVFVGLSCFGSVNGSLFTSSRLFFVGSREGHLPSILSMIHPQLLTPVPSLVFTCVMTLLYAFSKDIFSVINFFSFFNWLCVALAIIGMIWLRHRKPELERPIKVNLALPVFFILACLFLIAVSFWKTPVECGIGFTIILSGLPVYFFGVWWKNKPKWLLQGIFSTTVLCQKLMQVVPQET
Chain of ATP-dependent translocase ABCB1 (P08183 whole entry): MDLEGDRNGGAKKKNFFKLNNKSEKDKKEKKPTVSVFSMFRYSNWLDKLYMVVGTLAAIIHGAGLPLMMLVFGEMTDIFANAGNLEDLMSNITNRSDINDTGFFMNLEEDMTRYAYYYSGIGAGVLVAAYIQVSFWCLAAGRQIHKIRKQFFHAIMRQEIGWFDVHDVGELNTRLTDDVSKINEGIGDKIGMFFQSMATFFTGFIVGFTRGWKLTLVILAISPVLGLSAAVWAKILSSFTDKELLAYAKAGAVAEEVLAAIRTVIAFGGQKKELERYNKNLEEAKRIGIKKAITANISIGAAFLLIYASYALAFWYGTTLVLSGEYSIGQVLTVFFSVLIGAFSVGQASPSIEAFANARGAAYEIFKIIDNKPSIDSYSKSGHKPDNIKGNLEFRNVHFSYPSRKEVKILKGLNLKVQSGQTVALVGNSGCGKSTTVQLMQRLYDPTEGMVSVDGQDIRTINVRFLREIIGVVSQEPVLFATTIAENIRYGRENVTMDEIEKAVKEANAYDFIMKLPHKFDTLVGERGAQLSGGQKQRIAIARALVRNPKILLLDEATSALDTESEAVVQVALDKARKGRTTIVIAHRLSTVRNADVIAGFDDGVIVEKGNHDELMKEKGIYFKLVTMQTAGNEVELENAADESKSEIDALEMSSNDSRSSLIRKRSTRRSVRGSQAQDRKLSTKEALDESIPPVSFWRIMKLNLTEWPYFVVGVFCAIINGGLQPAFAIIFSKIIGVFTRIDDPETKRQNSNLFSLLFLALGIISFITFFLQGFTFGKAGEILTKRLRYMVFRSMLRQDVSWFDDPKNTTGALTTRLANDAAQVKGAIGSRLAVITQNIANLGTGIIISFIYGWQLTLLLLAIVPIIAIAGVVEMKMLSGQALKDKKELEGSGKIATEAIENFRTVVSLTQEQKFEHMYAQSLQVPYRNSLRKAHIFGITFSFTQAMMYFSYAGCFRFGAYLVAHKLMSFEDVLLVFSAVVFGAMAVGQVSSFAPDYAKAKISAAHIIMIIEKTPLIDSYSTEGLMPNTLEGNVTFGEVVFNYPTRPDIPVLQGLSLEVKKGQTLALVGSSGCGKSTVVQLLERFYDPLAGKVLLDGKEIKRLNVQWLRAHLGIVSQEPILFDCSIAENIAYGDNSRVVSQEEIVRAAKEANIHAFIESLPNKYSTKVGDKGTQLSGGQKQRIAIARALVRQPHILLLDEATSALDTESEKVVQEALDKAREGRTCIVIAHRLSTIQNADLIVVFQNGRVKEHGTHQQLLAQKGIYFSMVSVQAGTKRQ

CLint scaled [1]: < 8.6 mL/min/kg
Papp A→B at 5 µM [2]: < 0.54 ×10⁻⁶ cm/s
Kdiss [3]: 0.007 s⁻¹
Ka [4]: 2.29 10^6/M/s
concentration at 0.5 h [5]: 7390 ng/mL
IC50 [6]: > 100 µM
Activity [7]: Not Active
inhibition (INH) [8]: Not Active
Tmax [9]: 0.333 h
AUC(0-inf) [10]: 8580 ng·h/mL
MRT inf [11]: 1.65 h
%AUCextra [12]: 0.552%
AUMC [13]: 4.85%
concentration at 2 h [14]: 168 ng/g
concentration at 0.5 h [15]: 53 ng/g
AUC(0-inf) [16]: 5030 ng·h/mL
AUMC [17]: 13.6%
Cmax [18]: 2090 ng/mL
%AUCextra [19]: 0.84%
AUMC [20]: 8.44%
half-life [21]: 3.41 h
MRT inf [22]: 2.75 h
bioavailability [23]: 32.7%
concentration at 0.5 h [24]: 3160 ng/g
concentration at 2 h [25]: 391 ng/g
concentration at 0.5 h [26]: 1420 ng/mL
Drug uptake [27]: Bld
Compound: CCn1c(=O)[nH]c(=O)c2c1nc(Cc1cn3cc(C)sc3n1)n2CC1COC1
inhibition in vivo at 1.5 mg/kg [28]: 40%
Activity (Mus musculus [29]): inactive
Activity (Mus musculus [30]): inactive
inhibition in vivo at 50 mg/kg (MC-38): 35%
Activity (Mus musculus [31]): inactive
Activity (Mus musculus [32]): inactive
Activity [33]: Non-Toxic
